# According to patent US11230547B2, “Purine inhibitors of human phosphatidylinositol 3-kinase delta” (Merck Sharp & Dohme Corp., priority 2017, dated 2022):
# pIC50: −log10 of the molar value.
# What was measured:
# [1] = molecular target: PI3Kdelta (Homo sapiens (Human), UniProt O00329); assay: HTRF PI3K biochemical assay, delta isoform; conditions: 0.3 nM enzyme, 100 uM ATP, 5 uM PIP2, form screened per table
# Summary of the method: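 PI3Kδ at 0.3 nM preincubated 15 min with compound, then reacted 1 h at room temperature with 100 uM ATP and 5 uM PIP2. PIP3 product detected by competitive HTRF displacing biotin-PIP3 from GST-GRP1 PH domain, so signal falls with activity. 10-point 3-fold dose response.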
# [2] = molecular target: PI3Kalpha (Homo sapiens (Human), UniProt P42336); assay: HTRF PI3K biochemical assay, alpha isoform (selectivity versus delta); conditions: relative ratio PI3K-alpha IC50 value / PI3K-delta IC50 value
# PI3Kalpha, sequence (P42336 whole entry, the tested form may be a part, canonical isoform): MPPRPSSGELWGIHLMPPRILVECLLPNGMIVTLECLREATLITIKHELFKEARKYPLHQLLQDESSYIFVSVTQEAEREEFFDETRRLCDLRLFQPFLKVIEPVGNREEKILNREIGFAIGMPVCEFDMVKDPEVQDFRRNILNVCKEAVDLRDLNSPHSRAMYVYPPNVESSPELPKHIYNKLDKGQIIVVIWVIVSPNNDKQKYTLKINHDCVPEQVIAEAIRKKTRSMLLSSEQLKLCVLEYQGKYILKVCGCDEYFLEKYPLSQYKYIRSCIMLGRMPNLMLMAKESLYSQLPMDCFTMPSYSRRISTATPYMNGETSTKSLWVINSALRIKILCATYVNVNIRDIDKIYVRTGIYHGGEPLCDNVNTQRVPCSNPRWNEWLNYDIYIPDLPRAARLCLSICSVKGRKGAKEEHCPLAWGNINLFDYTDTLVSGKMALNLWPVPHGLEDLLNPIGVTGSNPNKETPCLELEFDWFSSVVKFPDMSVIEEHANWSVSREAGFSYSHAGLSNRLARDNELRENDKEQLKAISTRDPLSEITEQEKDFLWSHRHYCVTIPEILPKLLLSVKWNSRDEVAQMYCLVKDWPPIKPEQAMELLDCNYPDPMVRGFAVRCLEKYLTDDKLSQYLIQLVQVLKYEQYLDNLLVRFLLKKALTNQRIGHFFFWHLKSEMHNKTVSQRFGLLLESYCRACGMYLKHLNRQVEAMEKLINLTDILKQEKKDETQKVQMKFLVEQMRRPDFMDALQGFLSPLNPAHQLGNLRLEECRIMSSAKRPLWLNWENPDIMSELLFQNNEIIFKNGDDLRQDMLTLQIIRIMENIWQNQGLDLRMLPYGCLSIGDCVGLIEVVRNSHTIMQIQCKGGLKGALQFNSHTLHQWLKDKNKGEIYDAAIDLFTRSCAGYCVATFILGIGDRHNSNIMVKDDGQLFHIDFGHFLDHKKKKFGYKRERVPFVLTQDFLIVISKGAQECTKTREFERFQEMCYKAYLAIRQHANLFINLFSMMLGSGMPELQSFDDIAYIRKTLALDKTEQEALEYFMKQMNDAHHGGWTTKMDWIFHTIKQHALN
# PI3Kalpha, sequence (P27986 whole entry partner, the tested form may be a part, canonical isoform): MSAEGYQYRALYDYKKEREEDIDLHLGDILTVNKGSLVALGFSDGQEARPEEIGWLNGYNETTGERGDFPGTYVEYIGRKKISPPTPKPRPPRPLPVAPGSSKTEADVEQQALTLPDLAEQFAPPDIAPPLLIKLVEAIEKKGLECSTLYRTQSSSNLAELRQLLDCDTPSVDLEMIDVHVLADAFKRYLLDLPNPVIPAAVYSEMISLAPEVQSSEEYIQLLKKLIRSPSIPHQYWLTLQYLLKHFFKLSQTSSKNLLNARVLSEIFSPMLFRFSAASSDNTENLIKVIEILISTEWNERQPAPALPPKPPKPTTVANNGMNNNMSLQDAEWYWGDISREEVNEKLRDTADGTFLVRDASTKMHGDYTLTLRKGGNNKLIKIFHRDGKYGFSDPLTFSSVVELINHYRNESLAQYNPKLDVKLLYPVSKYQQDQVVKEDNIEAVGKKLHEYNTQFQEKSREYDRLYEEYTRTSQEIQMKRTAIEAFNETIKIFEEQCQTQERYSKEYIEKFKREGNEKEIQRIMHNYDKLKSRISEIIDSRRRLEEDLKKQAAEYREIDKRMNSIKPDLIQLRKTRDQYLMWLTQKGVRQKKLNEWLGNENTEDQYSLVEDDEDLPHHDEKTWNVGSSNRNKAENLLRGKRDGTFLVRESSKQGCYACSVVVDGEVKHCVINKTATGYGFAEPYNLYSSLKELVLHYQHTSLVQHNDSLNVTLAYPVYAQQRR
# Summary of the method: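 Recombinant human PI3Kα (0.5 nM) preincubated 15 min with compound, then reacted 1 h at room temperature with 100 uM ATP and 5 uM PIP2. PIP3 formation detected by HTRF competition with biotin-PIP3 for GST-GRP1 PH domain (Eu/APC, 665/620 nm); product lowers signal.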
# PI3Kdelta, sequence (O00329 whole entry, the tested form may be a part, canonical isoform): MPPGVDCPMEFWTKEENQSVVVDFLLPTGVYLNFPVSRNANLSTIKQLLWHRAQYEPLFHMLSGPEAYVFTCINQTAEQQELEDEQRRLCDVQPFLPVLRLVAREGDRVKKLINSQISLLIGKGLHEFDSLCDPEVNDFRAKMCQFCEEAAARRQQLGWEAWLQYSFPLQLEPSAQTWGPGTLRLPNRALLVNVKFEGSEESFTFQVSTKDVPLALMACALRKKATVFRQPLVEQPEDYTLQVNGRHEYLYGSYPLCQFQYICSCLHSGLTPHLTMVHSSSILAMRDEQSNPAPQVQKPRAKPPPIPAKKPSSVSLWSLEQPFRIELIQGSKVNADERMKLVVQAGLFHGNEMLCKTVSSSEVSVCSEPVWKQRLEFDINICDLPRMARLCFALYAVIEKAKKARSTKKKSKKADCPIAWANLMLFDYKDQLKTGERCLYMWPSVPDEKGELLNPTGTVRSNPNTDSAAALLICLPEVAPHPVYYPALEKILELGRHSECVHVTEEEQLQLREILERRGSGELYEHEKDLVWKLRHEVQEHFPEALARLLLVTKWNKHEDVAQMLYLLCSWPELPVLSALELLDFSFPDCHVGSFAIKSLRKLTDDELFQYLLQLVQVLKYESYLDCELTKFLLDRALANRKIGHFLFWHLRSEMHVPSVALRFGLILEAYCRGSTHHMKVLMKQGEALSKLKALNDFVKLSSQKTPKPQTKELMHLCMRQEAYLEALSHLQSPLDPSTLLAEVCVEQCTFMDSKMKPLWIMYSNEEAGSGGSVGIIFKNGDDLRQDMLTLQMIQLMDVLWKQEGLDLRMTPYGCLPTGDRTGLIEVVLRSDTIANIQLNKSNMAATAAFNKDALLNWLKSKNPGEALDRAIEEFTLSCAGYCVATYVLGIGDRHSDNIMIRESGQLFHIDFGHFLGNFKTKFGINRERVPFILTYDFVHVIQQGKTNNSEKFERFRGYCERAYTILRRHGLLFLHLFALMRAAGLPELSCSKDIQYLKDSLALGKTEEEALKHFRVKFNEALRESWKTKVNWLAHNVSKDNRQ
# PI3Kdelta, sequence (P27986 whole entry partner, the tested form may be a part, canonical isoform): as the sequence (P27986 whole entry partner, the tested form may be a part, canonical isoform) above
SMILES,pIC50 [1],Selectivity versus PI3Kalpha [2]
"Cc1cncc(-c2ncc(C#N)c(N3C[C@@H]4CC3CN4c3cccc(F)c3)n2)c1 (stereo in doubt) [Compound 1-19, 4-[(1R,4S)-5-(3-fluorophenyl)-2,5-diazabicyclo[2.2.1]hept-2-yl]-2-(5-methylpyridin-3-yl)pyrimidine-5-carbonitrile]",6.54,>10
"Cn1cc(-c2ncc(C#N)c(N3CC4C[C@H]3CN4c3cccc(C#N)c3)n2)cn1 (stereo in doubt) [Compound 1-1, 4-[(1S,4R)-5-(3-cyanophenyl)-2,5-diazabicyclo[2.2.1]hept-2-yl]-2-(1-methyl-1H-pyrazol-4-yl)pyrimidine-5-carbonitrile]",7.16,>10
"Cn1cc(-c2ncc(C#N)c(N3CC4C[C@H]3CN4CC3CC3)n2)cn1 (stereo in doubt) [Compound 2-3, 4-[(1S,4R)-5-(cyclopropylmethyl)-2,5-diazabicyclo[2.2.1]hept-2-yl]-2-(1-methyl-1H-pyrazol-4-yl)pyrimidine-5-carbonitrile]",5.85,8
"CC(C)S(=O)(=O)N1C[C@@H]2CC1CN2c1nc(-c2cnn(C)c2)ncc1C#N (stereo in doubt) [Compound 2-13, 4-{(1S,4R)-5-[(1-methylethyl)sulfonyl]-2,5-diazabicyclo[2.2.1]hept-2-yl}-2-(1-methyl-1H-pyrazol-4-yl)pyrimidine-5-carbonitrile]",6.33,>10
"Cn1cc(-c2ncc(C#N)c(N3CC4C[C@H]3CN4C(=O)C(C)(C)C)n2)cn1 (stereo in doubt) [Compound 2-5, 4-[(1S,4R)-5-(2,2-dimethylpropanoyl)-2,5-diazabicyclo[2.2.1]hept-2-yl]-2-(1-methyl-1H-pyrazol-4-yl)pyrimidine-5-carbonitrile]",6.72,>10
"Cn1cc(-c2ncc(C#N)c(N3CC4C[C@H]3CN4C(=O)CC3COC3)n2)cn1 (stereo in doubt) [Compound 2-12, 2-(1-methyl-1H-pyrazol-4-yl)-4-[(1S,4R)-5-(oxetan-3-ylacetyl)-2,5-diazabicyclo[2.2.1]hept-2-yl]pyrimidine-5-carbonitrile]",6.32,10
"Cn1cc(-c2ncc(C#N)c(N3CC4C[C@H]3CN4C(=O)c3cccs3)n2)cn1 (stereo in doubt) [Compound 2-10, 2-(1-methyl-1H-pyrazol-4-yl)-4-[(1S,4R)-5-(thiophen-2-ylcarbonyl)-2,5-diazabicyclo[2.2.1]hept-2-yl]pyrimidine-5-carbonitrile]",6.30,>10

# Second part, the molecule after the results:
pIC50 [1],Selectivity versus PI3Kalpha [2],SMILES
7.52,>10,"C[C@@H]1CN(c2nc(-c3cnn(C)c3)ncc2C#N)CCN1c1cccc(S(C)(=O)=O)c1 [Compound 4-13, 4-{(3R)-3-methyl-4-[3-(methylsulfonyl)phenyl]piperazin-1-yl}-2-(1-methyl-1H-pyrazol-4-yl)pyrimidine-5-carbonitrile]"
6.80,>10,"C[C@@H]1CN(c2nc(-c3cnn(C)c3CCC(F)(F)F)ncc2C#N)CCN1C(=O)C1CC1 [Compound 6-11, 4-[(3R)-4-(cyclopropylcarbonyl)-3-methylpiperazin-1-yl]-2-[1-methyl-5-(3,3,3-trifluoropropyl)-1H-pyrazol-4-yl]pyrimidine-5-carbonitrile]"
6.21,>10,"C[C@@H]1CN(c2nc(-c3cnn(C)c3)ncc2Cl)CCN1C(=O)C1CC1 [Compound 5-13, 5-chloro-4-[(3R)-4-(cyclopropylcarbonyl)-3-methylpiperazin-1-yl]-2-(1-methyl-1H-pyrazol-4-yl)pyrimidine]"
6.26,>10,"C[C@@H]1CN(c2nc(-c3cnn(C)c3)ncc2C#N)CCN1C(=O)C1CCC1(F)F (stereo partly drawn) [Compound 4-5, 4-{(3R)-4-[(2,2-difluorocyclobutyl)carbonyl]-3-methylpiperazin-1-yl}-2-(1-methyl-1H-pyrazol-4-yl)pyrimidine-5-carbonitrile]"
